Test results published in patent US6787560B2, “Serotonin reuptake inhibitor” (Sumitomo Pharmaceuticals Company Limited, priority 2000, dated 2004).

Assays:
[1] = biological target: T1, [3H]citalopram binding site, cerebral cortex membrane preparation (serotonin reuptake) (Rattus norvegicus, UniProt P31652); assay: Screening test using [3H]citalopram binding (Test Example 1); conditions: 0.7 nM [3H]citalopram, test agent concentration not given, read-out: Rate of inhibition of [^3H] citalopram binding (%)
T1 construct: 146 μl of the cerebral cortex membrane preparation (72 μg/well in terms of protein); from tissue; host or cells: male rat cerebral cortex membrane preparation
Protocol: Screening Test Using [^3H[Citalopram Binding
1-1. Preparation of a Cerebral Cortex Membrane Preparation
The membrane preparation was prepared according to the method^1) of D'amato et al. In detail, after a male rat was decapitated, the whole brain was immediately removed and the cerebral cortex was separated therefrom under ice-cooling. A buffer solution (50 mM Tris-HCl (pH=7.4), 120 mM NaCl, 5 mM KCl) was added to the cerebral cortex in an amount of 2.5 times the wet weight of the cerebral cortex, followed by homogenization in an ice bath by the use of a Teflon-glass homogenizer. The homogenate was centrifuged at 4° C. and 45,000×g for 10 minutes, and the resulting precipitate was dispersed in an ice-cooled buffer solution (50 mM Tris-HCl (pH=7.4), 120 mM NaCl, 5 mM KCl) by the use of Hiscotron™, followed by centrifugation at 4° C. and 45,000×g for 10 minutes. The resulting precipitate was re-suspended and the washing procedure was repeated. The membrane preparation thus obtained was suspended in the same buffer solution as described above, and then subjected to cryopreservation at −80° C.
1-2 Receptor Binding Experiment
[^3H]citalopram binding was measured according to the method^1) of D'amato et al. In detail, 50 μl of a dilution (final concentration: 0.7 nM) of [^3H]citalopram with 50 mM Tris-HCl (pH=7.4) buffer containing 120 mM NaCl and 5 mM KCl, 146 μl of the cerebral cortex membrane preparation (72 μg/well in terms of protein) and 4 μl of a solution of a test agent in dimethyl sulfoxide were mixed to make a total volume of 200 μl. The resulting liquid was allowed to react at room temperature for 60 minutes and then rapidly filtered by suction at a low pressure through glass fiber filter paper. The glass fiber filter paper was washed twice with 250 μl of the same buffer solution as above and then transferred to a glass vial containing 4 ml of ACS-II (Amersham), and the radio-activity remaining on the filter paper was measured with a liquid scintillation counter.
The amount of [^3H]citalopram bound in the presence of 100 μM 5-HT was taken as the amount of [^3H]citalopram non-specifically bound.
(§1) Rate of binding inhibition was calculated by the following equation:
Rate of binding inhibition (%)=100−100×{[amount of [^3H]citalopram bound in the presence of test agent]−[amount of [^3H]citalopram bound in the presence of 100 μM 5-HT]/[amount of [^3H]citalopram bound in the absence of test agent]−[amount of [^3H]citalopram bound in the presence of 100 μM 5-HT]}

[2] = biological target: T2, serotonin 1A receptors ([3H]8-OH-DPAT binding, hippocampus membrane preparation) (Rattus norvegicus, UniProt P19327); assay: [3H]8-OH-DPAT binding test (Test Example 2); conditions: 2 nM [3H]8-OH-DPAT, test agent concentration not given, read-out: Rate of inhibition of [^3H] 8-OH-DPAT binding (%)
T2 construct: 146 μl of the hippocampus membrane preparation (80 μg/tube in terms of protein); from tissue; host or cells: male rat hippocampus membrane preparation
T2 sequence (P19327 1-422): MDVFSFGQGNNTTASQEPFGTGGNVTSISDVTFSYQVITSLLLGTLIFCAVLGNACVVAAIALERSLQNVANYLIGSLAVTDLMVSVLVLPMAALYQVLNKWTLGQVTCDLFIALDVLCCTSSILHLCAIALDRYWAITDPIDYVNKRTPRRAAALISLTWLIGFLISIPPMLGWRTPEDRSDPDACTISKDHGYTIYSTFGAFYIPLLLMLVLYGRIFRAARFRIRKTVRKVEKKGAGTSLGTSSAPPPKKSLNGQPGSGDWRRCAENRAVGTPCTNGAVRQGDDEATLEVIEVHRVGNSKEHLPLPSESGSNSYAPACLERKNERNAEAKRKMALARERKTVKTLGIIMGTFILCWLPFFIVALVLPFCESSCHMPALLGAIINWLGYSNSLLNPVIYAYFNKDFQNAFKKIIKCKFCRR
Protocol: [^3H]18-OH-DPAT Binding Test
The test was carried out according to the method^2) of Hall M. D. et al. After pre-breeding for about 1 week, a male rat was decapitated and the brain was immediately removed. The hippocampus was separated from the brain on ice, and 50 mM Tris-HCl (pH=7.4) was added to the hippocampus in an amount of 40 times the wet weight of the hippocampus, followed by homogenization (3 min, 1 stroke/min) in an ice bath by the use of a Teflon-glass homogenizer. Then, the homogenate was centrifuged (4° C.) at 40,000×g for 10 minutes. The resulting precipitate was dispersed in an ice-cooled buffer solution (50 mM Tris-HCl (pH=7.4)) by the use of Hiscotron, followed by centrifugation (4° C.) at 40,000×g for 10 minutes. Moreover, the resulting precipitate was re-suspended and the washing procedure was repeated once. The precipitate thus obtained was dispersed in an ice-cooled buffer solution (50 mM Tris-HCl (pH=7.4)) by the use of Hiscotron™, and the resulting dispersion was incubated at 37° C. for 1 hour and then centrifuged (4° C.) at 40,000×g for 10 minutes. Furthermore, the resulting precipitate was re-suspended and the washing procedure was repeated once. The resulting membrane preparation was suspended in the same buffer solution as described above, and then subjected to cryopreservation at −80° C.
Measurement was carried out by using a liquid for reaction obtained by adding 50 μl of [^3H]8-OH-DPAT (final concentration: 2 nM), 4 μl of a solution of a test agent and 146 μl of the hippocampus membrane preparation (80 μg/tube in terms of protein) to a buffer solution containing 50 mM Tris-HCl (pH=7.4) and 4 mM CaCl2 to make a total volume of 200 μl. The liquid for reaction was allowed to react at room temperature for 30 minutes and then rapidly filtered by suction at a low pressure through glass fiber filter paper. The glass fiber filter paper was washed twice with 250 μl of a buffer solution and then added to a glass vial containing 4 ml of ACS-II (Amersham), and the radioactivity bound to receptors and remaining on the filter paper was measured with a liquid scintillation counter. The amount of [^3H]8-OH-DPAT bound in the presence of 1 μM of 8-OH-DPAT was taken as the amount of [^3H]8-OH-DPAT non-specifically bound.
as §1
Rate of binding inhibition (%)=100−100×{[amount of [^3H]8-OH-DPAT bound in the presence of test substance]−[amount of [^3H]8-OH-DPAT bound in the presence of 1 μM 8-OH-DPAT]/[amount of [^3H]8-OH-DPAT bound in the absence of test substance]−[amount of [^3H]8-OH-DPAT bound in the presence of 1 μM 8-OH-DPAT]}

[3] = biological target: T3, human 5-HT1A receptors (human 5-HT1A/CHO membrane preparation) (Homo sapiens, UniProt P08908); assay: 5-HT1A receptor actuation test, [35S]GTPγS binding (Test Example 3); assay type: biochemical; conditions: 10^-5 M test substance; rate of increase in [35S]GTPγS binding, increase due to 10 μM 5-HT taken as 100%
T3 construct: expressed in transfected cells; host or cells: CHO cells (human 5-HT1A/CHO), Geneticin-selected
T3 sequence (P08908 1-422): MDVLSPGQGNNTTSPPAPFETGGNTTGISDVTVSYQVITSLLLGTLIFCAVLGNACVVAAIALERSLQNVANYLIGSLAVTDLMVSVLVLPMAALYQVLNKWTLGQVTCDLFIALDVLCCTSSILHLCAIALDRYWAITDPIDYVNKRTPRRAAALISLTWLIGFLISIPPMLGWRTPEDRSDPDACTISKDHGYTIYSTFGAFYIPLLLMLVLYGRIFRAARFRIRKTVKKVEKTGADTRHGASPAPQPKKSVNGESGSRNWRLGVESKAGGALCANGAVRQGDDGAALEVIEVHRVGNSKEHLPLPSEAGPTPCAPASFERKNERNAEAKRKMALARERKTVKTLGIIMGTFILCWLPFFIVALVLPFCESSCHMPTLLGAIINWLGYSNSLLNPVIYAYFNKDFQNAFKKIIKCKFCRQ
Protocol: 5-HT1A Receptor Actuation Test
3-1. Cells Used and Preparation of a Membrane Preparation
Human ^5-HT1A receptor expression CHO cells (human 5-HT1A/CHO) were used in the experiment. The cells were cultured on F12 containing 10% FCS, 500 μg/ml Geneticin and 100 U/ml penicillin-100 μg/ml streptomycin (all available from GIBCO) in a 5% CO2 incubator, and a membrane preparation was prepared according to the method^3) of A. Newman et al. In detail, cells peeled and collected by the use of buffer solution A (20 mM HEPES, 5 mM MgSO4) were homogenized in a Teflon homogenizer, followed by centrifugation (50,000×g, 30 min, 4° C.). The precipitate was re-suspended in a suitable volume of buffer solution A and stored at −80° C. until use The amount of proteins in the membrane preparation was determined with Dye Reagent Concentrate (BIO-RAD) by using Albumin Bovine (SIGMA) as a standard substance.
Binding of [^35S]GTPγS to human 5-HT1A receptors was measured by the use of the above-mentioned membrane preparation according to the method^3) of Newman et al. In detail, 0.05 nM of [^35S]GTPγS (E. I. du Pont de Nemours & Co. NEN) and a definite amount (about 50 μg/tube) of the membrane preparation were added to buffer solution B (20 mM HEPES, 3 mM MgSO4, 3 μM GDP, 1 mM DTT) containing 10^−5M of each test substance, and the resulting liquid for reaction having a total volume of 1 ml was incubated at 22° C. for 20 minutes. After completion of the reaction, the reaction mixture was diluted with 5 ml of ice-cooled buffer solution B, and the dilution was rapidly filtered by suction at a low pressure through glass fiber filter paper (Whatman, GF/B) to terminate the reaction. The glass fiber filter paper was washed twice with the same buffer solution as above and placed in a vial, and 4 ml of ACS-II was added thereto. The radioactivity of [^35S]GTPγS on the filter paper was measured with a liquid scintillation counter. The amount of [^35S]GTPγS specifically bound was calculated from the amount of [^35S]GTPγS non-specifically bound in the presence of 10 μM of GTPγS (Sigma). The 5-HTLA receptor actuating activity of each test substance was expressed in terms of the rate of increase in [^35S]GTPγS binding by taking an increase in [^35S]GTPγS binding due to 10 μM of 5-HT as 100%.

T1 sequence (P31652 whole entry): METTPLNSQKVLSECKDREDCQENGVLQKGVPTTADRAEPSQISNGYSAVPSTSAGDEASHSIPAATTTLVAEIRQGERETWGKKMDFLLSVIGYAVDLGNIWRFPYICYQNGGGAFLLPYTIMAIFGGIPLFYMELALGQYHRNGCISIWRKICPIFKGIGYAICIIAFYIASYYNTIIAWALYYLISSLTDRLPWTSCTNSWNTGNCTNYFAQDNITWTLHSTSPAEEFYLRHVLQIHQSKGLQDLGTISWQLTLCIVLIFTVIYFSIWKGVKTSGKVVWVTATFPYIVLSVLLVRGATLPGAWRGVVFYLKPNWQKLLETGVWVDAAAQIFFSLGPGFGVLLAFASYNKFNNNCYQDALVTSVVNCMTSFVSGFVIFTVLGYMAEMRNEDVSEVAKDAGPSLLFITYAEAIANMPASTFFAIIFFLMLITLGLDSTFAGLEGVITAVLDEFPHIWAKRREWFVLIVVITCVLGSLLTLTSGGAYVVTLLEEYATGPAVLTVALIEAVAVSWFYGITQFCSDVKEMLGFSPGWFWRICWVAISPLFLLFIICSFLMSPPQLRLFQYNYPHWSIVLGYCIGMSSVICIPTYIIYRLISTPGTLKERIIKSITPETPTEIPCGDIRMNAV

CCOc1ccc(Br)c(CC2CCN(CCc3ccccc3Cl)CC2)c1 [Example 169, N-(2-(2-chlorophenyl)ethyl)-4-(2-bromo-5-ethoxybenzyl)piperidine]
inhibition [1]: 86% | inhibition [2]: 74% | 5-HT14 receptor actuating activity (%) [3]: 48%

COc1ccc(Br)c(CC2CCN(Cc3cccc(C(=O)NCc4ccccc4)c3)CC2)c1 [Example 12]
inhibition [1]: 100% | inhibition [2]: 98% | 5-HT14 receptor actuating activity (%) [3]: 19%

NC(=O)c1cccc(CCN2CCC(Cc3ccccc3Br)CC2)c1 [Example 49]
inhibition [1]: 98% | inhibition [2]: 47% | 5-HT14 receptor actuating activity (%) [3]: 48%

COc1ccc(Br)c(CC2CCN(CCc3cccc4ccccc34)CC2)c1 [Example 54, N-(2-(1-naphthyl)ethyl)-4-(2-bromo-5-methoxybenzyl)piperidine]
inhibition [1]: 73% | inhibition [2]: 92%

COc1ccc(Br)c(CC2CCN(CCc3cccnc3)CC2)c1 [Example 103, N-(2-(3-pyridyl)ethyl)-4-(2-bromo-5-methoxybenzyl)piperidine]
inhibition [1]: 91% | inhibition [2]: 94% | 5-HT14 receptor actuating activity (%) [3]: 52%

COc1ccc(Br)c(CC2CCN(CCc3ccccc3)CC2)c1 [Example 11, N-phenethyl-4-(2-bromo-5-methoxybenzyl)-piperidine]
inhibition [1]: 82% | inhibition [2]: 96% | 5-HT14 receptor actuating activity (%) [3]: 32%

COc1ccc(Cl)c(CC2CCN(CCCN3C(=O)c4ccccc4C3=O)CC2)c1 [Example 82, N-(3-phthaliminopropyl)-4-(2-chloro-5-methoxybenzyl)piperidine]
inhibition [1]: 100% | inhibition [2]: 72% | 5-HT14 receptor actuating activity (%) [3]: 49%
